Laboratory results from patent US20250314639A1, “SYSTEMS AND METHODS FOR HIGH THROUGHPUT SINGLE MOLECULE TRACKING IN LIVING CELLS” (EIKON THERAPEUTICS, INC., priority 2022, published 2025).
“Also recorded” adds a separate entry of the source.

How the values were obtained:
ER [1] = target: T1, ER (Homo sapiens, UniProt P03372); test: htSMT change in fbound of Halo-ER in U2OS cells; assay type: cell-based; details: for change in fbound of ER: versus DMSO, bioactive screen at 1 μM compound
T1 construct: expressed in transfected cells; host or cells: U2OS
T1 sequence (P03372 1-595): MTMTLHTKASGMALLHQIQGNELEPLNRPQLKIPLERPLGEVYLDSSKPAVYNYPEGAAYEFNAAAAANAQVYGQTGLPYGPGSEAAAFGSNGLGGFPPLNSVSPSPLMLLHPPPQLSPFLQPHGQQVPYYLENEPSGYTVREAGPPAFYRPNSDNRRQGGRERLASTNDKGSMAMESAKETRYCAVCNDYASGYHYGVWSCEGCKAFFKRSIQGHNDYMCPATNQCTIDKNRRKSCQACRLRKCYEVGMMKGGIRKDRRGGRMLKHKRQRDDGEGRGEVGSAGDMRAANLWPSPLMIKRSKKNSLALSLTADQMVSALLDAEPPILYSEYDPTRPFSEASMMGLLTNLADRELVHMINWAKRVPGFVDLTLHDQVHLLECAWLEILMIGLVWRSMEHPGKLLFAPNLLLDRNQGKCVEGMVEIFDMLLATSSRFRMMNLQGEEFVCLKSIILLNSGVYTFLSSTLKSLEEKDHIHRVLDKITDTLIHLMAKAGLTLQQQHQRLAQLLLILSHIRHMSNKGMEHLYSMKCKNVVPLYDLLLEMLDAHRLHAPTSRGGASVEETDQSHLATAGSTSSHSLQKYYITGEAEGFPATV

GR = target: T2, GR (Homo sapiens, UniProt P04150); test: htSMT fbound of GR-HaloTag in U2OS cells; assay type: cell-based; details: 1 μM antagonist, singly or co-administered with the cognate agonist
T2 construct: Because U2OS cells express GR endogenously; endogenous in cells; host or cells: U2OS (CRISPR/Cas9 knock-in at the endogenous locus)
T2 sequence (P04150 1-777): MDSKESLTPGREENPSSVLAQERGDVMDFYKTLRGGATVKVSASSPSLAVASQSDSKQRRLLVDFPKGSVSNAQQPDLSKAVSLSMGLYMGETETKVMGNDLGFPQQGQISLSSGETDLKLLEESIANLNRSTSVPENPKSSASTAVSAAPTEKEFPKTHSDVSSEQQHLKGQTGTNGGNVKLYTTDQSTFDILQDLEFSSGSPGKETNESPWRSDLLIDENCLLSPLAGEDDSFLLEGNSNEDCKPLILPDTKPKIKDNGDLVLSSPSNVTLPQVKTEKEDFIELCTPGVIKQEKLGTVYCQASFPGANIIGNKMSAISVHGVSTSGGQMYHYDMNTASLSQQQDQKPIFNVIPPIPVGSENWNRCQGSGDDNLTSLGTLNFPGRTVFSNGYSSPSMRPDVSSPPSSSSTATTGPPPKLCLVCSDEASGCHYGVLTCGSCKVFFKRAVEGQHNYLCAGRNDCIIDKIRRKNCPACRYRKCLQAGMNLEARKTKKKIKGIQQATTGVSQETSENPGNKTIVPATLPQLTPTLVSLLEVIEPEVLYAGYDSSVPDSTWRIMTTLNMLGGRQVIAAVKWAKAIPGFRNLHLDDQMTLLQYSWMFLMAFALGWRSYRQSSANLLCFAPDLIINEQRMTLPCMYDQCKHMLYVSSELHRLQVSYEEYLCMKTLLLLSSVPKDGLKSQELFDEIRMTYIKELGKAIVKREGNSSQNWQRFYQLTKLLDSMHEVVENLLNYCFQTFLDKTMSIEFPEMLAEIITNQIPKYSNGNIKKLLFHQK
Source text: Where appropriate, compounds were serially diluted in an Echo Qualified 384-Well Low Dead Volume Source Microplate (0018544, Beckman Coulter) to generate dose-titration source material.

AR = AR (Homo sapiens, UniProt P10275)
AR, sequence (P10275 whole entry): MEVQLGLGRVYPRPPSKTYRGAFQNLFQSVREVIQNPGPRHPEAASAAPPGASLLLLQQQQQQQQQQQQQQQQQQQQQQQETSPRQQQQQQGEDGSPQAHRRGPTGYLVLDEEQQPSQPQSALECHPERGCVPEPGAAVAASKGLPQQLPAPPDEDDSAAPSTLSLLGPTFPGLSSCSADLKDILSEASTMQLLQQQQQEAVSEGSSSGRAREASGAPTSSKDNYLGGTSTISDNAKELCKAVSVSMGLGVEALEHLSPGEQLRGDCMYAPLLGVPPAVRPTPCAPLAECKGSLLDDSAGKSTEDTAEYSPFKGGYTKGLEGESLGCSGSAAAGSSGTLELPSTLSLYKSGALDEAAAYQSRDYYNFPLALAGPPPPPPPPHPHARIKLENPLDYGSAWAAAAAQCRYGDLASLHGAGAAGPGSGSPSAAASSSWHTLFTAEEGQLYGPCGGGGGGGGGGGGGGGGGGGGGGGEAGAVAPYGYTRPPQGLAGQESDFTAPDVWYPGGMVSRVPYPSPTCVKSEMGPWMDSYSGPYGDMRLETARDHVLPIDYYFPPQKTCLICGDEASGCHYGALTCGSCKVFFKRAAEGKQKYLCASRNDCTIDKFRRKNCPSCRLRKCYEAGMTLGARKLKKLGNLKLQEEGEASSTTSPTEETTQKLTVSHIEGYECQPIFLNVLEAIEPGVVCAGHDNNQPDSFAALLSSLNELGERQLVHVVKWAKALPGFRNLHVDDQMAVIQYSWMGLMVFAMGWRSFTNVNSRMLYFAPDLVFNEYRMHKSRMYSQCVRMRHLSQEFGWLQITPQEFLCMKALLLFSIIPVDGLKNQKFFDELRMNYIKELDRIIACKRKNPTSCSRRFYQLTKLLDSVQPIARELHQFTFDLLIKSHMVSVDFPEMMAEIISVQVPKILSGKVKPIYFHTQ

ER [2] = target: T1, ER; test: residence time imaging of ER-Halo cells (track length survival); assay type: cell-based; details: 100 nM HSP90 inhibition, versus DMSO, FIG. 16E
ER [3] = target: T1, ER; test: kinetic SMT (kSMT) of ER after compound addition; assay type: cell-based; details: for t1/2 of increase in fbound: 100 nM compound, single exponential fit; for time at which overall effect on ER movement reaches a plateau: FIG. 16C
ER [4] = target: T1, ER; test: Western blot of ER after 24 hours compound treatment; assay type: cell-based; details: 100 nM fulvestrant, MCF7, T47d, Halo-ER U2OS
Protocol: Cells were grown in the same conditions as described previously. […] Cells are lysed in 200 μL 1× Cell Lysis Buffer (catalogue number 9803, Cell Signaling). Protein lysate concentration is then determined using BCA protein assay kit (Catalog number 23225, Pierce™ BCA Protein Assay Kit) following manufacturer instructions. Capillary Western Immunoassay were performed using Jess Protein Simple following manufacturer's instruction (protein simple, USA). Levels of αER (1:100, RM-9101) were normalized to loading control β-tubulin (1:100, NC0244815 LI-COR 92642213, Thermo Fisher). The peaks were analyzed with the Compass software (Protein Simple, USA).

Molecule | change in fbound of ER (ER [1]) | decrease in the total number of long binding events (ER [2]) | t1/2 of increase in fbound (ER [3]) | time at which overall effect on ER movement reaches a plateau (ER [3]) | further results
4-hydroxytamoxifen | significantly increased fbound |  |  |  | maximal increase in fbound of ER (ER [1]; compared with the SERDs fulvestrant and GDC-0927, FIG. 14D): lower maximal increases in fbound
CN(C)c1ccc(C(c2ccc(N(C)C)cc2)c2cc([N+](=O)[O-])ccc2Cl)cc1 [AL082D06] |  |  |  |  | change in chromatin binding (fbound) of GR (GR): decrease in chromatin binding
CC(O)c1cc(C(=O)N[C@@H](C)Cn2ccc(-c3ccc(C#N)c(Cl)c3)n2)[nH]n1 (some centres unmarked) [Darolutamide] |  |  |  |  | change in chromatin binding (fbound) of AR (AR): decrease in chromatin binding
COc1cccc(-c2cc(F)ccc2[C@H]2Cc3nc(N)nc(C)c3C(=O)N2)n1 [HSP990] | an increase in fbound | two | 17.5 min | plateau after an hour | 
C[C@]12CC[C@@H]3c4ccc(O)cc4C[C@@H](CCCCCCCCC[S+]([O-])CCCC(F)(F)C(F)(F)F)[C@H]3[C@@H]1CC[C@@H]2O (some centres unmarked) [fulvestrant] | caused an increase in fbound; also recorded: significantly increased fbound |  |  |  | ER degradation (western blot) (ER [4]): leads to the degradation of ER
CC(C)c1cc(-c2n[nH]c(=O)n2-c2ccc3c(ccn3C)c2)c(O)cc1O [ganetespib] | an increase in fbound | four | 19.3 min | plateau after an hour | 
